Experiments:
[1] = biological target: CDK1/Cyclin B1 (Homo sapiens, UniProt P06493); test: CDK1/Cyclin B1 TR-FRET biochemical assay, 0.015 mM ATP; conditions: 0.15 μM Rb (Ser780)-biotin substrate, 120 min reaction, Table 1
Experimental: (§1) Compounds disclosed herein were tested for inhibition of CDK2/Cyclin E1 or CDK1/Cyclin B1 kinase in an assay based on the time-resolved fluorescence-resonance energy transfer (TR-FRET) methodology. The assay was carried out in 384-well low volume black plates in a reaction mixture containing CDK2/Cyclin E1 or CDK1/Cyclin B1, 0.060 mM ATP for CDK2/Cyclin E1 or 0.015 mM ATP for CDK1/Cyclin B1, 0.15 μM Rb (Ser780)-biotin substrate and 0-10 μM compound in buffer containing 50 mM HEPES pH7.0, 0.02% NaN3, 0.01% BSA, 0.1 mM Orthovanadate, 50 mM MgCl2, 1 mM DTT and 0.005% Tween-20. The kinase was incubated with compound for 60 minutes at room temperature and the reaction was initiated by the addition of ATP and Rb (Ser780)-biotin substrate. After reaction at room temperature for 120 minutes, an equal volume of stop/detection solution was added according to the manufacture's instruction (Cisbio Bioassays). The stop/detection solution contained Streptavidin-XL665 and Anti-pRb (Ser780) mAb-Eu Cryptate in Detection buffer (Cisbio Bioassays). Plates were incubated at room temperature for 60 minutes, and the TR-FRET signals (ex337 nm, em665 nm/620 nm) were recorded on a PHERAstar FSX plate reader (BMG Labtech). The inhibition percentage of CDK2/Cyclin E1 or CDK1/Cyclin B1 kinase activity in presence of increasing concentrations of compounds was calculated based on the ratio of fluorescence at 665 nm to that at 620 nm. The IC50 for each compound was derived from fitting the data to the four-parameter logistic equation by Dotmatics.

[2] = biological target: CDK2/Cyclin E1 (Homo sapiens, UniProt P24941); test: CDK2/Cyclin E1 TR-FRET biochemical assay, 0.060 mM ATP; conditions: 0.15 μM Rb (Ser780)-biotin substrate, 120 min reaction, Table 1
Experimental: as §1

CDK1/Cyclin B1, sequence (P06493 whole entry): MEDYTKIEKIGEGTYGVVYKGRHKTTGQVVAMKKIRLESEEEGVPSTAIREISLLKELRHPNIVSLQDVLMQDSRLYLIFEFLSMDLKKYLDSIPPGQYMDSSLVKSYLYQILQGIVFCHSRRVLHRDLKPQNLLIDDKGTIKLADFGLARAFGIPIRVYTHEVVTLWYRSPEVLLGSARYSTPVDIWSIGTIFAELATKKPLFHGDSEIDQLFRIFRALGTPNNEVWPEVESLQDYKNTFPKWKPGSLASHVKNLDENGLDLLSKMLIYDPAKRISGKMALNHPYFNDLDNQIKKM
CDK1/Cyclin B1, sequence (P14635 whole entry partner): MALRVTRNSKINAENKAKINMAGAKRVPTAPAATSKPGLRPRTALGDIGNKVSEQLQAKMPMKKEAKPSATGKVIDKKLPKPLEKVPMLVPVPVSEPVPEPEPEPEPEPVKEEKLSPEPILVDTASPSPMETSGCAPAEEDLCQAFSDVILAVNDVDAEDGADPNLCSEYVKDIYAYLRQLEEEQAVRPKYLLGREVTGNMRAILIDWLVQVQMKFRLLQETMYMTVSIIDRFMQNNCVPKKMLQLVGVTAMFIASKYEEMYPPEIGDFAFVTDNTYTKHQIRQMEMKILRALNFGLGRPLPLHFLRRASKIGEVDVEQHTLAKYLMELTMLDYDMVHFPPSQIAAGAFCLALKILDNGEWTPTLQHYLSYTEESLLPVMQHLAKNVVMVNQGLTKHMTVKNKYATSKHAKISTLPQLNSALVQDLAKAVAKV

| Structure (SMILES) | IC50 [1] | IC50 [2] |
| --- | --- | --- |
| O=c1c(C2CC2)csn1[C@H]1CC[C@@H](c2cc(Nc3ccc4c(c3F)CNS4(=O)=O)n[nH]2)C1 (relative stereo) [Example 54, cis-4-cyclopropyl-2-(3-(3-((4-fluoro-1,1-dioxido-2,3-dihydrobenzo[d]isothiazol-5-yl)amino)-1H-pyrazol-5-yl)cyclopentyl)isothiazol-3 (2H)-one] | 418 nM | 49 nM |
| CC1(C)CN([C@H]2CC[C@@H](c3cc(Nc4ccc5c(c4F)CNS5(=O)=O)n[nH]3)C2)C(=O)N1 (relative stereo) [Example 85, cis-1-(3-(3-((4-fluoro-1,1-dioxido-2,3-dihydrobenzo[d]isothiazol-5-yl)amino)-1H-pyrazol-5-yl)cyclopentyl)-4,4-dimethylimidazolidin-2-one] | 289 nM | 31 nM |
| CC(C)c1ccnn([C@H]2CC[C@@H](c3cc(Nc4ccc5c(c4F)CNS5(=O)=O)n[nH]3)C2)c1=O (relative stereo) [Example 26, cis-2-(3-(3-((4-fluoro-1,1-dioxido-2,3-dihydrobenzo[d]isothiazol-5-yl)amino)-1H-pyrazol-5-yl)cyclopentyl)-4-isopropylpyridazin-3 (2H)-one] | 1690 nM | 140 nM |
| CC1(C)NC(=O)N(C2CCC(c3cc(Nc4ccc5c(c4F)CNS5(=O)=O)n[nH]3)C2)C1=O (single isomer, unassigned) [Example 84b, cis-3-(3-(3-((4-fluoro-1,1-dioxido-2,3-dihydrobenzo[d]isothiazol-5-yl)amino)-1H-pyrazol-5-yl)cyclopentyl)-5,5-dimethylimidazolidine-2,4-dione] | 142 nM | 14 nM |
| CC(C)c1csnc1O[C@@H]1CC[C@H](c2cc(Nc3ccc4c(c3F)CNS4(=O)=O)n[nH]2)C1 (relative stereo) [Example 55, cis-4-fluoro-5-((5-(3-((4-isopropylisothiazol-3-yl)oxy)cyclopentyl)-1H-pyrazol-3-yl)amino)-2,3-dihydrobenzo[d]isothiazole 1,1-dioxide] | 486 nM | 14 nM |
| CC(C)c1cn[nH]c1O[C@@H]1CC[C@H](c2cc(Nc3ccc4c(c3F)CNS4(=O)=O)n[nH]2)C1 (relative stereo) [Example 60, cis-4-fluoro-5-((5-(3-((4-isopropyl-1H-pyrazol-5-yl)oxy)cyclopentyl)-1H-pyrazol-3-yl)amino)-2,3-dihydrobenzo[d]isothiazole 1,1-dioxide] | 732 nM | 12 nM |
| O=S1(=O)NCc2c1ccc(Nc1cc([C@H]3CC[C@@H](Oc4cnccc4C4CC4)C3)[nH]n1)c2F (relative stereo) [Example 41, cis-5-((5-(3-((4-cyclopropylpyridin-3-yl)oxy)cyclopentyl)-1H-pyrazol-3-yl)amino)-4-fluoro-2,3-dihydrobenzo[d]isothiazole 1,1-dioxide] | 474 nM | 33 nM |
| CC(C)(C)c1ccnc(O[C@@H]2CC[C@H](c3cc(Nc4ccc5c(c4F)CNS5(=O)=O)n[nH]3)C2)c1 (relative stereo) [Example 47, cis-5-((5-(3-((4-(tert-butyl)pyridin-2-yl)oxy)cyclopentyl)-1H-pyrazol-3-yl)amino)-4-fluoro-2,3-dihydrobenzo[d]isothiazole 1,1-dioxide] | > 10000 nM | 3440 nM |
| Cc1cc(O[C@@H]2CC[C@H](c3cc(Nc4ccc5c(c4F)CNS5(=O)=O)n[nH]3)C2)[nH]n1 (relative stereo) [Example 65, cis-4-fluoro-5-((5-(3-((3-methyl-1H-pyrazol-5-yl)oxy)cyclopentyl)-1H-pyrazol-3-yl)amino)-2,3-dihydrobenzo[d]isothiazole 1,1-dioxide] | 1360 nM | 70 nM |
| O=S1(=O)NCc2c1ccc(Nc1cc([C@H]3CC[C@@H](Oc4n[nH]c5ccccc45)C3)[nH]n1)c2F (relative stereo) [Example 67, cis-5-((5-(3-((1H-indazol-3-yl)oxy)cyclopentyl)-1H-pyrazol-3-yl)amino)-4-fluoro-2,3-dihydrobenzo[d]isothiazole 1,1-dioxide] | 2150 nM | 54 nM |
| Cc1n[nH]cc1O[C@@H]1CC[C@H](c2cc(Nc3ccc4c(c3F)CNS4(=O)=O)n[nH]2)C1 (relative stereo) [Example 79, cis-4-fluoro-5-((5-(3-((3-methyl-1H-pyrazol-4-yl)oxy)cyclopentyl)-1H-pyrazol-3-yl)amino)-2,3-dihydrobenzo[d]isothiazole 1,1-dioxide] | 486 nM | 10 nM |
| O=S1(=O)NCc2c1ccc(Nc1cc([C@H]3CC[C@@H](Oc4ccccn4)C3)[nH]n1)c2F (relative stereo) [Example 46, cis-4-fluoro-5-((5-(3-(pyridin-2-yloxy)cyclopentyl)-1H-pyrazol-3-yl)amino)-2,3-dihydrobenzo[d]isothiazole 1,1-dioxide] | 7450 nM | 419 nM |
| CC(C)N1CCN([C@H]2CC[C@@H](c3cc(Nc4ccc5c(c4F)CNS5(=O)=O)n[nH]3)C2)C1=O (relative stereo) [Example 81, cis-1-(3-(3-((4-fluoro-1,1-dioxido-2,3-dihydrobenzo[d]isothiazol-5-yl)amino)-1H-pyrazol-5-yl)cyclopentyl)-3-isopropylimidazolidin-2-one] | > 10000 nM | 1190 nM |
| CC1(C)NC(=O)N(C2CCC(c3cc(Nc4ccc5c(c4F)CNS5(=O)=O)n[nH]3)C2)C1=O (single isomer, unassigned) [Example 84a, cis-3-(3-(3-((4-fluoro-1,1-dioxido-2,3-dihydrobenzo[d]isothiazol-5-yl)amino)-1H-pyrazol-5-yl)cyclopentyl)-5,5-dimethylimidazolidine-2,4-dione] | 237 nM | 7.6 nM |
| Cc1ccnn([C@H]2CC[C@@H](c3cc(Nc4ccc5c(c4F)CNS5(=O)=O)n[nH]3)C2)c1=O (relative stereo) [Example 23, cis-2-(3-(3-((4-fluoro-1,1-dioxido-2,3-dihydrobenzo[d]isothiazol-5-yl)amino)-1H-pyrazol-5-yl)cyclopentyl)-4-methylpyridazin-3 (2H)-one] | 526 nM | 132 nM |
| O=c1ccon1[C@H]1CC[C@@H](c2cc(Nc3ccc4c(c3F)CNS4(=O)=O)n[nH]2)C1 (relative stereo) [Example 49, cis-2-(3-(3-((4-fluoro-1,1-dioxido-2,3-dihydrobenzo[d]isothiazol-5-yl)amino)-1H-pyrazol-5-yl)cyclopentyl)isoxazol-3 (2H)-one] | 2560 nM | 478 nM |
| CC(C)(C)c1cnc([C@@H]2CC[C@H](c3cc(Nc4ccc5c(c4F)CS(=O)(=O)N5)n[nH]3)C2)o1 (relative stereo) [Example 145, cis-5-((5-(3-(5-(tert-butyl)oxazol-2-yl)cyclopentyl)-1H-pyrazol-3-yl)amino)-4-fluoro-1,3-dihydrobenzo[c]isothiazole 2,2-dioxide] | 11 nM | 3.3 nM |
| Cc1ccncc1O[C@@H]1CC[C@H](c2cc(Nc3ccc4c(c3F)CNS4(=O)=O)n[nH]2)C1 (relative stereo) [Example 42, cis-4-fluoro-5-((5-(3-((4-methylpyridin-3-yl)oxy)cyclopentyl)-1H-pyrazol-3-yl)amino)-2,3-dihydrobenzo[d]isothiazole 1,1-dioxide] | 531 nM | 171 nM |
| CCOC(=O)c1cn[nH]c1O[C@H]1CC[C@@H](c2cc(Nc3ccc4c(c3F)CNS4(=O)=O)n[nH]2)C1 (relative stereo) [Example 68, cis-ethyl 5-((3-(3-((4-fluoro-1,1-dioxido-2,3-dihydrobenzo[d]isothiazol-5-yl)amino)-1H-pyrazol-5-yl)cyclopentyl)oxy)-1H-pyrazole-4-carboxylate] | 198 nM | 12 nM |
| CC(C)c1n[nH]cc1O[C@@H]1CC[C@H](c2cc(Nc3ccc4c(c3F)CNS4(=O)=O)n[nH]2)C1 (relative stereo) [Example 73, cis-4-fluoro-5-((5-(3-((3-isopropyl-1H-pyrazol-4-yl)oxy)cyclopentyl)-1H-pyrazol-3-yl)amino)-2,3-dihydrobenzo[d]isothiazole 1,1-dioxide] | 445 nM | 12 nM |
| CN1C(=O)N([C@H]2CC[C@@H](c3cc(Nc4ccc5c(c4F)CNS5(=O)=O)n[nH]3)C2)C(=O)C1(C)C (relative stereo) [Example 86, cis-3-(3-(3-((4-fluoro-1,1-dioxido-2,3-dihydrobenzo[d]isothiazol-5-yl)amino)-1H-pyrazol-5-yl)cyclopentyl)-1,5,5-trimethylimidazolidine-2,4-dione] | 1340 nM | 73 nM |
| O=S1(=O)NCc2c1ccc(Nc1cc([C@H]3CC[C@@H](Oc4ccsn4)C3)[nH]n1)c2F (relative stereo) [Example 50, cis-4-fluoro-5-((5-(3-(isothiazol-3-yloxy)cyclopentyl)-1H-pyrazol-3-yl)amino)-2,3-dihydrobenzo[d]isothiazole 1,1-dioxide] | 1320 nM | 33 nM |

Reference: patent publication US20260200897A1, “4-((5-(3-(4-(PYRIDIN-2-YL)CYCLOPENTYL)-1H-PYRAZOL-3-YL)AMINO)-BENZENESULFONAMIDE DERIVATIVES AND SIMILAR COMPOUNDS AS CDK INHIBITORS FOR THE TREATMENT OF CANCER” (BeOne Medicines I GmbH, priority 2023, published 2026)
